From ChEMBL document CHEMBL5365456, “Isolation and biological activity of natural chalcones based on antibacterial mechanism classification” (Bioorg Med Chem, 2023)
In brackets after ≈: the same amount, converted by molar mass.

Columns and labels:
[1] = Inhibition of Micrococcus luteus IFO 3333 membrane NADH oxidase by absorbance based assay; type: cell membranes
[2] = Inhibition of Micrococcus luteus IFO 3333 membrane NADH-cytochrome c reductase by absorbance based assay; type: cell membranes
Bacillus subtilis = experiment: Antibacterial activity against Bacillus subtilis IFO 3060 assessed bacterial growth inhibition by two-fold serial broth dilution method; type: functional
Micrococcus luteus = experiment: Antibacterial activity against Micrococcus luteus IFO 3333 assessed bacterial growth inhibition by two-fold serial broth dilution method; type: functional
Escherichia coli [3] = experiment: Antibacterial activity against Escherichia coli HUT 215 assessed bacterial growth inhibition by two-fold serial broth dilution method; type: functional
[4] = Inhibition of Pseudomonas aeruginosa JCM 2776 membrane NADH oxidase by absorbance based assay; type: cell membranes
Staphylococcus aureus [5] = experiment: Antibacterial activity against Staphylococcus aureus IFO 3007 assessed bacterial growth inhibition by two-fold serial broth dilution method; type: functional
[6] = Inhibition of Escherichia coli HUT 215 membrane NADH oxidase by absorbance based assay; type: cell membranes
[7] = Inhibition of Staphylococcus aureus IFO 3007 membrane NADH oxidase by absorbance based assay; type: cell membranes
Pseudomonas aeruginosa = experiment: Antibacterial activity against Pseudomonas aeruginosa JCM 2776 assessed bacterial growth inhibition by two-fold serial broth dilution method; type: functional
Staphylococcus aureus [8] = experiment: Antibacterial activity against Staphylococcus aureus MSSA1 assessed bacterial growth inhibition by CLSI-based broth microdilution method; type: functional
Staphylococcus aureus [9] = experiment: Antibacterial activity against Staphylococcus aureus ATCC 10832 assessed as bacterial growth inhibition incubated for 24 hrs by CLSI-based broth microdilution assay; type: functional
[10] = Haemolytic activity in rabbit Erythrocyte infected with Staphylococcus aureus ATCC 29213 assessed as inhibition of alpha-toxin production at 0.125 ug/ml incubated for 20 mins; type: toxicity, cell-based, Oryctolagus cuniculus; details: at 0.125 µg/mL
Staphylococcus aureus [11] = experiment: Antibacterial activity against Staphylococcus aureus ATCC 29213 assessed as bacterial growth inhibition incubated for 24 hrs by CLSI-based broth microdilution assay; type: functional
[12] = Haemolytic activity in rabbit Erythrocyte infected with Staphylococcus aureus ATCC 10832 assessed as inhibition of alpha-toxin production at 0.125 ug/ml incubated for 20 mins; type: toxicity, cell-based, Oryctolagus cuniculus; details: at 0.125 µg/mL
[13] = Inhibition of His-tagged Escherichia coli ANS1 Fab1 using trans-2-octanoyl-N-acetylcysteamine as substrate by spectrometric analysis
[14] = Inhibition of His-tagged Escherichia coli ANS1 FabG using acetoacetyl-CoA as substrate by spectrometric analysis
[15] = Inhibition of FAS2 in Mycobacterium smegmatis mc2 155 transfected with pVV16 vector by BCA assay; set-up: species or system Mycolicibacterium smegmatis
[16] = Inhibition of FAS2 in Mycobacterium smegmatis mc2 155 transfected with pVV16 vector expressing Rv0636 by BCA assay; set-up: species or system Mycolicibacterium smegmatis
Escherichia coli [17] = experiment: Antibacterial activity against Escherichia coli ANS1 assessed as bacterial growth inhibition incubated for 20 hrs by broth microdilution method; type: functional

`COc1c(/C=C/C(=O)c2ccc(O)cc2)ccc(O)c1CC=C(C)C` gave an IC50 [1] of 3 µM, an IC50 [2] of 29.6 µM and an MIC (Bacillus subtilis) of 12.5 µg/mL (≈ 36.9 µM). It also gave an MIC (Micrococcus luteus) of 6.25 µg/mL (≈ 18.5 µM), an MIC (Escherichia coli [3]) greater than 100 µg/mL and an IC50 [4] of 13.9 µM. The MIC (Staphylococcus aureus [5]) was 6.25 µg/mL (≈ 18.5 µM), the IC50 [6] was 7.4 µM and the IC50 [7] was 23.4 µM. For the same compound, the MIC (Pseudomonas aeruginosa) was greater than 100 µg/mL.

`COc1c(/C=C/C(=O)c2ccc(O)cc2)ccc(O)c1O` gave an MIC (Bacillus subtilis) of 10 µg/mL (≈ 34.9 µM), an MIC (Micrococcus luteus) of 50 µg/mL (≈ 175 µM) and an MIC (Staphylococcus aureus [5]) of 100 µg/mL (≈ 349 µM).

For `CC1(C)C=Cc2c(ccc(C(=O)/C=C/c3ccc(O)cc3)c2O)O1`, the MIC (Staphylococcus aureus [8]) was 4 µg/mL (≈ 12.4 µM).

For `C=C(C)[C@@H](C)c1cc(/C=C/C(=O)c2ccc(O)cc2)c(OC)cc1O`, the MIC (Staphylococcus aureus [9]) was 2 µg/mL (≈ 5.91 µM), the “inhibition (INH)” value [10] was 33% and the MIC (Staphylococcus aureus [11]) was 2 µg/mL (≈ 5.91 µM). The “inhibition (INH)” value [12] was 58%.

In the case of `O=C(/C=C/c1ccc(O)c(O)c1)c1ccc(O)cc1O` [BUTEIN], the IC50 [13] is reported as 30 µM, the IC50 [14] is reported as 10 µM and the IC50 [15] is reported as 22 µg/mL (≈ 80.8 µM). For the same compound, the IC50 [16] was 30 µg/mL (≈ 110 µM) and the MIC (Escherichia coli [17]) was 32 µM (≈ 8.71 µg/mL).

`COc1c(/C=C/C(=O)c2ccc(O)c(CC=C(C)C)c2)ccc(O)c1O` [LICOCHALCONE D] showed an MIC (Bacillus subtilis) of 50 µg/mL (≈ 141 µM), an MIC (Micrococcus luteus) of 50 µg/mL (≈ 141 µM) and an MIC (Staphylococcus aureus [5]) of 50 µg/mL (≈ 141 µM).
